US20250281479A1, “TREATMENT OF CAVERNOUS ANGIOMAS WITH A 4-SUBSTITUTED PIPERIDINE DERIVATIVE” (Neurelis, Inc., priority 2024, published 2025)

What was measured:
[1] = nonclinical pharmacokinetics after a single oral dose; type: in vivo, mice, rats, and monkeys
Experimental: (§1) Exposure to NRL-2017 was similar or greater (up to 5-fold) than that to NRL-1049 in rats when dosed once a day (QD). In monkeys, exposure to NRL-2017 was also greater (up to 33-fold) than that to NRL-1049. When rats were dosed twice a day (BID) for 14 days, there was a decrease in formation of NRL-2017 with exposure to NRL-2017 lower than that of NRL-1049 (ratio as low as 0.06). […] NRL-1049 bound to human serum albumin and human alpha1-acid glycoprotein. […] There was also inhibition of P-glycoprotein (P-gp) (only CACO-2 cells), organic anion transporting polypeptides (OATP) OATP1B1, OATP1B3 and OAT3 (IC50, >100 μM), but no effect on P-gp (MDCK2 cells), breast cancer resistance protein (BCRP), bile salt export pump (BSEP), or MATE2-K. NRL-1049 is a substrate for P-gp, not BCRP. […] This conclusion will be revisited when human pharmacokinetic (PK) data becomes available.

[2] = nonclinical exposure to NRL-2017 versus NRL-1049 in rats; type: in vivo
Experimental: as §1

[3] = nonclinical exposure to NRL-2017 versus NRL-1049 in monkeys; type: in vivo
Experimental: as §1

[4] = tissue distribution and excretion; type: in vivo
Experimental: as §1

[5] = biological target: ROCK 2 (Homo sapiens, UniProt O75116); experiment: ROCK 2 inhibition by metabolites; type: biochemical
[6] = first-in-human single ascending dose and food-effect study, plasma pharmacokinetics; type: in vivo; conditions: for Tmax: po; for Thalf: mean
Text: This was a first-in-human, single center, randomized, double-blind, placebo-controlled, single ascending dose (SAD) study, including a food-effect assessment, in healthy male and female subjects. Up to 44 subjects were included in the study.
The study consisted of 4 sequential cohorts of 8 subjects each (6 active and 2 placebo), randomly assigned to receive a single oral dose of NRL-1049 or matching-placebo under fasting state on Day 1 (See Table 2). In each cohort, a sentinel group of 2 subjects (1 active and 1 placebo) were dosed at least 24 hours prior to enrolling the remaining subjects of the cohort, contingent on the safety profile observed during sentinel dosing, as defined by medical judgment.
Subjects were admitted to the clinical research unit (CRU) on Day −1. On Day 1, following an overnight fast, subjects received a single oral dose of their assigned study treatment. Safety, PK, and exploratory biomarker assessments were performed prior to dosing and at assigned time points during study confinement. Subjects were permitted to leave the CRU following the completion of the 48-hour PK postdose sampling and safety assessments. A safety follow-up phone call was performed on Day 8 (±1 day).
Furthermore, a food-effect assessment was integrated into Cohort 3, in which a single oral 150 mg dose of NRL-1049 or placebo was administered to 12 subjects (10 active and 2 placebo) under fed state in Period 2 (refer to schedule of food-effect Cohort 3 in Table 3). After completion of Period 1 and a washout period of at least 14 days, Cohort 3 subjects repeated the screening procedures to ensure they still met the inclusion and exclusion criteria prior to readmission to the CRU for Period 2. Subjects dosed in Period 1 and who returned for Period 2 (a maximum of 6 active and 2 placebo) were administered the same single oral dose in Period 2 under fed state. In addition, at least 4 new subjects were enrolled in Period 2 only, in order to dose a total of 12 subjects (10 active and 2 placebo), in a 1:1 ratio of male to female. If a subject dosed in Period 1 was unable to return for Period 2, a new subject was enrolled to ensure dosing a total of 12 subjects in Period 2. Newly enrolled subjects only received the study drug in the fed state, and as such were not required to undergo Period 1 activities. There was no sentinel approach in Period 2.
Study drugs (NRL-1049 or placebo) were administered in the morning. The date and time of each dose was recorded. For each subject, all scheduled postdose activities and assessments were performed relative to the time of study drug administration. An oral dose of the assigned formulation was administered to subjects with approximately 240 mL of water at ambient temperature. The capsule(s) were swallowed whole and not chewed or broken. Food and fluid intake other than water were controlled for each confinement period and all subjects. In Cohorts 1, 2, 3 (Period 1), and 4, water was permitted as needed except from 1 hour predose until 1 hour after dosing. In Period 2 of Cohort 3, water was permitted as needed throughout the confinement period. For cohorts under fasting state, subjects were required to fast (abstain from food) for at least 10 hours prior to dosing and for at least 4 hours following dosing. In Period 2 of the food-effect cohort only, following an overnight fast of at least 10 hours, subjects received a standardized high-fat, high-calorie meal 30 minutes prior to study drug administration. An example meal would consist of 2 eggs fried in butter, 2 strips of bacon, 2 slices of toast with butter, 4 ounces of hash brown potatoes, and 8 ounces of whole milk. […] Subjects had to eat the total content of this meal in 30 minutes or less. For all cohorts, a standardized lunch was served at least 4 hours after dosing. A supper, light snack, and other meals were served at appropriate times thereafter, but not until after 9 hours postdose. […]

[7] = 150 mg NRL-1049, fed compared to fasting state
[8] = 25 to 250 mg NRL-1049, fasting conditions

Chain of ROCK 2 (O75116 whole entry, species assumed): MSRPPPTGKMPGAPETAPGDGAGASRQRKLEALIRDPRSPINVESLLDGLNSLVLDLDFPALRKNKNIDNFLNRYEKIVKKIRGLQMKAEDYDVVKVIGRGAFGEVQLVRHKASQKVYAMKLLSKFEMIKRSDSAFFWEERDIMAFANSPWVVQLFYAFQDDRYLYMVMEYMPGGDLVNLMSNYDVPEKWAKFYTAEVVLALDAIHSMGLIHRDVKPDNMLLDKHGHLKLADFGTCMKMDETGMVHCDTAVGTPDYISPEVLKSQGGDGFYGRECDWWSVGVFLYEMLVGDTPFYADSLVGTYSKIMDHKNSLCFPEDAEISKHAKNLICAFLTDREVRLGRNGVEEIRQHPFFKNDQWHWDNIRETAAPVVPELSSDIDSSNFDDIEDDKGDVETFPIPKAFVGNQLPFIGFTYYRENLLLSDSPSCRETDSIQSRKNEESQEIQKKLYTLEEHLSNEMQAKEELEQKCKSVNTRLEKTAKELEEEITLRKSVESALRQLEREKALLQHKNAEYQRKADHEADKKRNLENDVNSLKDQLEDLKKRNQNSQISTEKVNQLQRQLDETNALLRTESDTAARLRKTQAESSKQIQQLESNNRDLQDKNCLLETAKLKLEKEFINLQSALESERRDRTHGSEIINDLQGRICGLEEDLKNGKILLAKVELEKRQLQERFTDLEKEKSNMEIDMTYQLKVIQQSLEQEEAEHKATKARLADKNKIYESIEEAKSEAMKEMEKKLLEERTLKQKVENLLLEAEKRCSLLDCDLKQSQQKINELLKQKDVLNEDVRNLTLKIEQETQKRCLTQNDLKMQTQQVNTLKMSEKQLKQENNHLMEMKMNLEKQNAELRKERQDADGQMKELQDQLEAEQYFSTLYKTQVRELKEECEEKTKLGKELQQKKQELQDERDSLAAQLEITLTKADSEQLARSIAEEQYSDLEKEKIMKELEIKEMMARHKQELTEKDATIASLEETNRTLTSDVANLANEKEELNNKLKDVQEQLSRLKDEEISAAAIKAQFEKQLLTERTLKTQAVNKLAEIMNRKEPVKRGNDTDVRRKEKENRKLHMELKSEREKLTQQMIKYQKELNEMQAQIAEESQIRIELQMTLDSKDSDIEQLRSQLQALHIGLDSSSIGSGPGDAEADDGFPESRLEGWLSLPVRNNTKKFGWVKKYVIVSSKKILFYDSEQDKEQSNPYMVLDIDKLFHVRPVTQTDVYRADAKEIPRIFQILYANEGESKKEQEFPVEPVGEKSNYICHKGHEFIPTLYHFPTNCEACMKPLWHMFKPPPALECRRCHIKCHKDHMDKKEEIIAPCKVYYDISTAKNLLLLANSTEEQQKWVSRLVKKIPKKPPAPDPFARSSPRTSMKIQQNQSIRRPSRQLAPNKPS

exposure versus dose ([1]; in vivo): greater than dose-proportional | half-life ([1]; mouse, rat, monkey, plasma, single oral dose of NRL-1049, range over mice, rats, and monkeys, read-out: elimination phase half-life (t½)): 0.58 to 5.7 h | Tmax ([1]; mouse, rat, monkey, plasma, single oral dose of NRL-1049, range over mice, rats, and monkeys, read-out: time to maximum plasma concentration (Tmax)): 0.5 to 4 h | exposure to NRL-2017 relative to NRL-1049 ([2]; rats dosed once a day (QD), similar or greater): up to 5 fold | exposure ratio NRL-2017 to NRL-1049 ([2]; rats dosed twice a day (BID) for 14 days): ≥ 0.06 | exposure to NRL-2017 relative to NRL-1049 [3]: up to 33 fold | tissue distribution ([4]; brain, aorta, inferior vena cava): distributed to brain and vascular tissue | excretion ([4]; in vivo): excreted in urine | ROCK 2 inhibition [5]: potent ROCK 2 inhibitor | food effect on mean AUC0-T and AUCinf [6, 7]: remained consistent | food effect on mean Cmax [6, 7]: decreased | food effect on mean elimination half-life [6, 7]: remained consistent | manner of increase of AUC0-T with dose [6, 8]: greater than dose proportional | manner of increase of AUC0-Tmax with dose [6, 8]: dose proportional | manner of increase of AUCinf with dose [6, 8]: greater than dose proportional | manner of increase of Cmax with dose [6, 8]: greater than dose proportional | time up to which mean concentrations were quantifiable ([6]; all dose levels of 25 to 250 mg NRL-1049 fasting and 150 mg fed): up to 48 hours | AUC(0-t) ([6]; both sexes, human, plasma, oral, range over dose range 25 to 250 mg NRL-1049, fasting state, read-out: mean AUC0-T): 0.478 to 6.69 µg·h/mL | AUC ([6]; both sexes, human, plasma, oral, range over dose range 25 to 250 mg NRL-1049, fasting state, read-out: mean AUC0-Tmax): 0.0356 to 0.457 µg·h/mL | AUC(0-inf) ([6]; both sexes, human, plasma, oral, range over dose range 25 to 250 mg NRL-1049, fasting state, read-out: mean AUCinf): 0.546 to 7.04 µg·h/mL | Cmax ([6]; both sexes, human, plasma, oral, range over dose range 25 to 250 mg NRL-1049, fasting state, read-out: mean Cmax): 0.0542 to 1.52 µg/mL | half-life ([6]; both sexes, human, plasma, oral, range over the dose groups 25 to 250 mg NRL-1049, fasting state, read-out: mean elimination half-life): 12.3 to 17.3 h | Tmax ([6]; both sexes, human, plasma, 150 mg, plasma metabolite NRL-2017, median, 150 mg NRL-1049 single oral, Fasted, Cohort 3, N = 6, read-out: Tmax): 1.13 h | Tmax ([6]; both sexes, human, plasma, 150 mg, plasma metabolite NRL-2017, median, 150 mg NRL-1049 single oral, Fed, Cohort 3, N = 10, read-out: Tmax): 1.75 h | Tmax ([6]; both sexes, human, plasma, range over single oral doses of 25 to 250 mg NRL-1049, fasting state, read-out: median time to maximum observed plasma concentration (Tmax)): 0.88 to 1.63 h | Thalf ([6]; plasma metabolite NRL-2017, 150 mg NRL-1049 single oral, Fasted, Cohort 3, N = 6): 12.28 h | Thalf ([6]; plasma metabolite NRL-2017, 150 mg NRL-1049 single oral, Fed, Cohort 3, N = 10): 12.37 h
SMILES: C[C@@H](N)C1CCN(S(=O)(=O)c2cccc3c(O)nccc23)CC1 [NRL-2017, 1-hydroxy NRL-1049]
